Laboratory results published in patent publication US20120122860A1, “SOLID FORMS OF SULFONAMIDES AND AMINO ACIDS” (Plexxikon, Inc., priority 2009, published 2012).

Columns and labels:
MAP4K4 = MAP4K4 (Homo sapiens, UniProt O95819); assay: Kinase activity assay, MAP4K4
Btk = Btk (Homo sapiens, UniProt Q06187); assay: Kinase activity assay, Btk
Kdr = Kdr (Homo sapiens, UniProt P35968); assay: Kinase activity assay, Kdr
Src = Src (Homo sapiens, UniProt P12931); assay: Kinase activity assay, Src
TEC = target: T1, TEC (Homo sapiens, UniProt P42680); assay: Kinase activity assay, TEC
T1 sequence (P42680 1-631): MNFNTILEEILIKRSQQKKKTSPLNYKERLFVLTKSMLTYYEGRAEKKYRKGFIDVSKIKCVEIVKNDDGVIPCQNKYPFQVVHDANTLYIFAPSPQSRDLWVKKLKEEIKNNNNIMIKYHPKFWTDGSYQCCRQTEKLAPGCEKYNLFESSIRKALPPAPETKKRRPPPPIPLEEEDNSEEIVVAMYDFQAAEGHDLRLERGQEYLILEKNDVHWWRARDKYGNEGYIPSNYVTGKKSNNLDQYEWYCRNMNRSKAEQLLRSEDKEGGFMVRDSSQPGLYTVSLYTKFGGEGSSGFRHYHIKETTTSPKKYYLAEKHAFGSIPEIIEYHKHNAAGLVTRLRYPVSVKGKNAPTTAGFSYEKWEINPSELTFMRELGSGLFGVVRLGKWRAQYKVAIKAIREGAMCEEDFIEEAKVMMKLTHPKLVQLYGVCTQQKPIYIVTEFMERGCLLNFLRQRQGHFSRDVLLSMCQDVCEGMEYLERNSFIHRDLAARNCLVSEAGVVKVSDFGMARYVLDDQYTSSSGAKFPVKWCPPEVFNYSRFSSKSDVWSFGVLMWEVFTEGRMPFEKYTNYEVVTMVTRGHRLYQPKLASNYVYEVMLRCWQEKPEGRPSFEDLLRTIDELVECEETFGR

Kit = Kit (Homo sapiens, UniProt P10721); assay: Kinase activity assay, Kit
Fms = Fms (Homo sapiens, UniProt P07333); assay: Kinase activity assay, Fms
B-Raf = B-Raf (Homo sapiens, UniProt P15056); assay: Kinase activity assay, B-Raf; assay type: biochemical; settings: read-out: activity toward kinase B-Raf, IC50
B-Raf V600E = B-Raf V600E (Homo sapiens, UniProt P15056, V600E); assay: Kinase activity assay, B-Raf V600E; assay type: biochemical; settings: read-out: activity toward kinase B-Raf V600E, IC50
C-Raf = C-Raf (Homo sapiens, UniProt P04049); assay: Kinase activity assay, C-Raf
A-Raf = target: T2, A-Raf (Homo sapiens, UniProt P10398); assay: Kinase activity assay, A-Raf
T2 sequence (P10398 1-606): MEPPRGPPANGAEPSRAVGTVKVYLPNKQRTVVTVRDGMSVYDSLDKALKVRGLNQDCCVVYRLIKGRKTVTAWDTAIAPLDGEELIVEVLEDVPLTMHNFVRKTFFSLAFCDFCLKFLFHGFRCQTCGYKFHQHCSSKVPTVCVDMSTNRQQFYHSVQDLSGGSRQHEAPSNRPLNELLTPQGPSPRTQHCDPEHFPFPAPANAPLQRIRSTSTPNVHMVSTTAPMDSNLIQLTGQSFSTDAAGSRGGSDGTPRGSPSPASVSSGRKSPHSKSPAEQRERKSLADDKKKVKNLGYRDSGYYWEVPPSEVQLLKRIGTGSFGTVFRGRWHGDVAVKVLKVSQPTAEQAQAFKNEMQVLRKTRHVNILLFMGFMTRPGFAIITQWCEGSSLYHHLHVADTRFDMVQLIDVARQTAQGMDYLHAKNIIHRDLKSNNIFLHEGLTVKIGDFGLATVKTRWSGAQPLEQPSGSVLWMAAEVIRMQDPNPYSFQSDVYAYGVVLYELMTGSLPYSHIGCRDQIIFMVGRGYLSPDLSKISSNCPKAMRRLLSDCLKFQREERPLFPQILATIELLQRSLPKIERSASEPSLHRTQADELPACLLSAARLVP

Measured: IC50

Chain of Btk (Q06187 whole entry): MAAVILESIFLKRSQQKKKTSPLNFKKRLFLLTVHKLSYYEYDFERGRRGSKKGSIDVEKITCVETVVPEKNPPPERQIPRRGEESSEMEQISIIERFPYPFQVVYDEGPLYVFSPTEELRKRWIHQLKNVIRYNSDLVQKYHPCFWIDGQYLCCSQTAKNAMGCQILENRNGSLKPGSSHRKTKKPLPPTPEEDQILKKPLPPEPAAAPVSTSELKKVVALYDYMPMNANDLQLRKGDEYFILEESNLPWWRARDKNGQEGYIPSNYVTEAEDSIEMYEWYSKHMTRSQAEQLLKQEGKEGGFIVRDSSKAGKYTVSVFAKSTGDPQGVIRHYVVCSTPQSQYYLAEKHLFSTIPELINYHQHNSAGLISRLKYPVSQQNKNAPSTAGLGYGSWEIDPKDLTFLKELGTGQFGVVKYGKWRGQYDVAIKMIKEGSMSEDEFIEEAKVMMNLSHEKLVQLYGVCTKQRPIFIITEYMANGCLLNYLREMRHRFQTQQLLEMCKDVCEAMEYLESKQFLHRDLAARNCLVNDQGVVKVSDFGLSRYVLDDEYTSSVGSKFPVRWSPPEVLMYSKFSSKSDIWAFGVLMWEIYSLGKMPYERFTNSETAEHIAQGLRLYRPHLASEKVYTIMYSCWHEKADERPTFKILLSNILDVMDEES
Chain of C-Raf (P04049 whole entry): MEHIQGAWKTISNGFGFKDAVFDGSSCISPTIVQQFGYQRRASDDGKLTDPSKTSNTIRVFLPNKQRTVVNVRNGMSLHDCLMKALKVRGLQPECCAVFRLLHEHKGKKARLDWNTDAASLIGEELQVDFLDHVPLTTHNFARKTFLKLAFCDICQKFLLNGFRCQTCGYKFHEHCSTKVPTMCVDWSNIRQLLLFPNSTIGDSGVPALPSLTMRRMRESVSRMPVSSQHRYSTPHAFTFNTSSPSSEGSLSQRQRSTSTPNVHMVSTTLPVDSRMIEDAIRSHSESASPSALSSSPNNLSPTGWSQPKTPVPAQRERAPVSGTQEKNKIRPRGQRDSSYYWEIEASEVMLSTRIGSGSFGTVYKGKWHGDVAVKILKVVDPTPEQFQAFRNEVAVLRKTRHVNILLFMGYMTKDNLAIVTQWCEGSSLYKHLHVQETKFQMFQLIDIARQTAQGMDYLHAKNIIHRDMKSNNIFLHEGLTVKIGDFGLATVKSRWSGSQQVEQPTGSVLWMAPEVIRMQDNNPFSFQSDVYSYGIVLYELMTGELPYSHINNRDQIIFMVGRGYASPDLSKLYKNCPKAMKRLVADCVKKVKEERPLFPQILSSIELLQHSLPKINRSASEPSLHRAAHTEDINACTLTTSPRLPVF
Chain of B-Raf V600E (P15056 whole entry V600E): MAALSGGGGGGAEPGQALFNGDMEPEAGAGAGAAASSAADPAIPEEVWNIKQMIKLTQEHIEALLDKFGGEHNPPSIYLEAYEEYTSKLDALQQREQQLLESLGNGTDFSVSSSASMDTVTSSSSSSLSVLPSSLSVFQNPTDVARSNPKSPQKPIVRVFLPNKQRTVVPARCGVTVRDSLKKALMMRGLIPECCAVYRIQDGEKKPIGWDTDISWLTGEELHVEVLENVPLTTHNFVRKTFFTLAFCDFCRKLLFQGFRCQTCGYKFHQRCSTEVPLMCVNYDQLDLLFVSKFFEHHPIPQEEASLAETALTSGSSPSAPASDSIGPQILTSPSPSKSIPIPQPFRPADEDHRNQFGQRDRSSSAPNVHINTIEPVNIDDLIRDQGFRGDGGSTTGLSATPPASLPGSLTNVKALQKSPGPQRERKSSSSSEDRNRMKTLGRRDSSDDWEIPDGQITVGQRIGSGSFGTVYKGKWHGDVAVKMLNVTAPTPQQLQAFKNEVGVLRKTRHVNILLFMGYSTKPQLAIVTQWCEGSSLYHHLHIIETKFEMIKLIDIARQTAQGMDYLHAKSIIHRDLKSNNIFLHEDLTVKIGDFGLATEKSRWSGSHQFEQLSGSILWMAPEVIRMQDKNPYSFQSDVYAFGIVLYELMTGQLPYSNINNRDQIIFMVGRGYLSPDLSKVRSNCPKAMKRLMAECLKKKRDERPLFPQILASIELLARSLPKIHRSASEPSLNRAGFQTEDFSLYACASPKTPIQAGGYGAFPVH
Chain of Kdr (P35968 20-1356): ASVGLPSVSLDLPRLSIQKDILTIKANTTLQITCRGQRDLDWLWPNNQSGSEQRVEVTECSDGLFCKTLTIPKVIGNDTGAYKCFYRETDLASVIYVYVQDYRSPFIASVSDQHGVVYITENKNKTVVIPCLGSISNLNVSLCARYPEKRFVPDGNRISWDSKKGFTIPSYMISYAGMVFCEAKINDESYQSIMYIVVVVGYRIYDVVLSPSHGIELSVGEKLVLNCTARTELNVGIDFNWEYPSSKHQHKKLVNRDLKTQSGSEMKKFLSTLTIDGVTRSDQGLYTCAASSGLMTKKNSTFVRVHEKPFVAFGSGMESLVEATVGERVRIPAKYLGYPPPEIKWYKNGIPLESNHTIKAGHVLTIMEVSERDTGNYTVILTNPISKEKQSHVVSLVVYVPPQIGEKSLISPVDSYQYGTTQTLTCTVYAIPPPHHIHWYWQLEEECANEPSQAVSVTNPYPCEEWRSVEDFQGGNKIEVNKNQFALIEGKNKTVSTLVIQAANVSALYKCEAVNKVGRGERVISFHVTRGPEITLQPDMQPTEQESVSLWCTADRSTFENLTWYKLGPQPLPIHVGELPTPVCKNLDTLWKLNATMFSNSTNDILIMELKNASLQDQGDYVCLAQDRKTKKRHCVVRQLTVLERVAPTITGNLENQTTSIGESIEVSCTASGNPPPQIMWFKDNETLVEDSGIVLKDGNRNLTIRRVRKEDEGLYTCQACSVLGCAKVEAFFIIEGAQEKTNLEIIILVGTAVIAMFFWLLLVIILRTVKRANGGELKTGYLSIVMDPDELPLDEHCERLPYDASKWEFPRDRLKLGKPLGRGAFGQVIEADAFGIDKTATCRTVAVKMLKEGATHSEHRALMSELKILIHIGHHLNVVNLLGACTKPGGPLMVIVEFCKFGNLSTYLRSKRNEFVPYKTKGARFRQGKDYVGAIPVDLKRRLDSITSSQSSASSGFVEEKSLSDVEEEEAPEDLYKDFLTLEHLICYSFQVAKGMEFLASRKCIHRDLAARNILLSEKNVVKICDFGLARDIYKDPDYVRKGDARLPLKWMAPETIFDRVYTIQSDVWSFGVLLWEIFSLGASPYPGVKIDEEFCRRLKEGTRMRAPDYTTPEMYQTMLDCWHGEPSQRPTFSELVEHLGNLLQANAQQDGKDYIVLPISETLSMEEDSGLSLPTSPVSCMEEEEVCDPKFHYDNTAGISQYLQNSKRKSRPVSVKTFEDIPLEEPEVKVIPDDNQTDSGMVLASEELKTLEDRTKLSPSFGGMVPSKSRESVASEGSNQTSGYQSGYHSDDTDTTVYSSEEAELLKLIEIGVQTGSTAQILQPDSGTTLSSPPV
Chain of Kit (P10721 26-976): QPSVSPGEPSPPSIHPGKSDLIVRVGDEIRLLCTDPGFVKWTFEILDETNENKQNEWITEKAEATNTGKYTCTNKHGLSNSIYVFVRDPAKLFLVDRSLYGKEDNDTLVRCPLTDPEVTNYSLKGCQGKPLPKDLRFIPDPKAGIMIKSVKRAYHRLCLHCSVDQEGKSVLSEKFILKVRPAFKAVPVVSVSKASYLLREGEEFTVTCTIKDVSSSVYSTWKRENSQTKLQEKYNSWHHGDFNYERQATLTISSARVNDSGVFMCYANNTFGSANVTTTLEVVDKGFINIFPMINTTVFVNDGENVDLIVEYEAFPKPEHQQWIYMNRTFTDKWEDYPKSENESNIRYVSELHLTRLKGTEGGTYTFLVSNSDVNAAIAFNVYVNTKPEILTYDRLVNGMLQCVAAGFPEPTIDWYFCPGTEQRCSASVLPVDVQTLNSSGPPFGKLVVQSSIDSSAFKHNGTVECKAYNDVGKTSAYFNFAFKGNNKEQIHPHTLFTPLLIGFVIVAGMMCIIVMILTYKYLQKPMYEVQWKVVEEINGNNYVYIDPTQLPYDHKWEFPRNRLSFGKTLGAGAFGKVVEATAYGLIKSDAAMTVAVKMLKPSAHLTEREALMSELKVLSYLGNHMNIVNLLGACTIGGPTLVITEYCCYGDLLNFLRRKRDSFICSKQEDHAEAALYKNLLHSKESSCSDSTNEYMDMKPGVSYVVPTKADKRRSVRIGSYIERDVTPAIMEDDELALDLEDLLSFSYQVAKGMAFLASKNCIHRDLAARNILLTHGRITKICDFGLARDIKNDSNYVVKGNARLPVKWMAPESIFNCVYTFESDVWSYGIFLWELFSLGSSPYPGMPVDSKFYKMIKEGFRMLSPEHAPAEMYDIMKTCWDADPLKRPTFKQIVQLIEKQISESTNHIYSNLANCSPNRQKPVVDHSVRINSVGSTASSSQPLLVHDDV
Chain of B-Raf (P15056 whole entry): as the sequence (P15056 whole entry V600E) above, with E600V counted along it
Chain of Src (P12931 whole entry): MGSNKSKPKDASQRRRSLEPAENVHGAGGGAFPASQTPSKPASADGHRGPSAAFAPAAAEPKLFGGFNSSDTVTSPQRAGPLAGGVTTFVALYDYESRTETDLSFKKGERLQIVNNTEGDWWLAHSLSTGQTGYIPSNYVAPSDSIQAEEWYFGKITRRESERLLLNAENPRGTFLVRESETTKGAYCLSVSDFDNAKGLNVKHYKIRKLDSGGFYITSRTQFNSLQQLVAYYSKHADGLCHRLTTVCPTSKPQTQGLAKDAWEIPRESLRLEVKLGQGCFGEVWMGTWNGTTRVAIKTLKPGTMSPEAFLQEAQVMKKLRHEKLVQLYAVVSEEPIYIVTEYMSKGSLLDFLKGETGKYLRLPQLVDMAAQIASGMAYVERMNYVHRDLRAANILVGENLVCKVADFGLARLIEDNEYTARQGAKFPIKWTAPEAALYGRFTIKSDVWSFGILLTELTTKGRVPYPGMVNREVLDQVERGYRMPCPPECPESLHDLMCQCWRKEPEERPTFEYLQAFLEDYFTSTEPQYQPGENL

COc1cnc2[nH]cc(C(=O)c3cccc(NS(=O)(=O)C4CCCCC4)c3)c2c1 [P-2460, Cyclohexanesulfonic acid [3-(5-methoxy-1H-pyrrolo[2,3-b]pyridine-3-carbonyl)-phenyl]-amide]
not listed: B-Raf | B-Raf V600E | C-Raf | A-Raf
≤ 10 µM: all other assays above

CN(C)S(=O)(=O)Nc1ccc(F)c(C(=O)c2c[nH]c3nccc(Cl)c23)c1F [P-2383, N,N-dimethylamino-sulfonic acid [3-(4-chloro-1H-pyrrolo[2,3-b]pyridine-3-carbonyl)-2,4-difluoro-phenyl]-amide]
not listed: A-Raf
≤ 10 µM: all other assays above

CS(=O)(=O)c1cccc(-c2cnc3[nH]cc(C(=O)c4cc(NS(=O)(=O)C5CCCCC5)ccc4F)c3c2)c1 [P-2444, Cyclohexanesulfonic acid {4-fluoro-3-[5-(3-methanesulfonyl-phenyl)-1H-pyrrolo[2,3-b]pyridine-3-carbonyl]-phenyl}-amide]
not listed: A-Raf
≤ 10 µM: all other assays above

COc1cnc2[nH]cc(C(=O)c3cccc(NS(=O)(=O)c4cccnc4)c3)c2c1 [P-2142, Pyridine-3-sulfonic acid [3-(5-methoxy-1H-pyrrolo[2,3-b]pyridine-3-carbonyl)-phenyl]-amide]
not listed: B-Raf V600E | C-Raf | A-Raf
≤ 10 µM: all other assays above

Cc1cnc2[nH]cc(C(=O)c3cc(NS(=O)(=O)C4CCCC4)ccc3F)c2c1 [P-2448, Cyclopentanesulfonic acid [4-fluoro-3-(5-methyl-1H-pyrrolo[2,3-b]pyridine-3-carbonyl)-phenyl]-amide]
not listed: B-Raf | B-Raf V600E | C-Raf | A-Raf
≤ 10 µM: all other assays above

CS(=O)(=O)c1cccc(-c2cnc3[nH]cc(C(=O)c4cc(NS(=O)(=O)c5cccnc5)ccc4F)c3c2)c1 [P-2138, Pyridine-3-sulfonic acid {4-fluoro-3-[5-(3-methanesulfonyl-phenyl)-1H-pyrrolo[2,3-b]pyridine-3-carbonyl]-phenyl}-amide]
not listed: B-Raf | B-Raf V600E | C-Raf | A-Raf
≤ 10 µM: all other assays above

COc1cnc2[nH]cc(C(=O)c3cccc(NS(=O)(=O)C4CCCC4)c3)c2c1 [P-2464, Cyclopentanesulfonic acid [3-(5-methoxy-1H-pyrrolo[2,3-b]pyridine-3-carbonyl)-phenyl]-amide]
not listed: Src | B-Raf | C-Raf | A-Raf
≤ 10 µM: all other assays above

CCC(C)S(=O)(=O)Nc1ccc(F)c(C(=O)c2c[nH]c3ncc(OC)cc23)c1F (stereo not drawn) [P-2308, Butane-2-sulfonic acid [2,4-difluoro-3-(5-methoxy-1H-pyrrolo[2,3-b]pyridine-3-carbonyl)-phenyl]-amide]
not listed: Kit | Fms | B-Raf | A-Raf
≤ 10 µM: all other assays above

Cn1cc(-c2cnc3[nH]cc(C(=O)c4cccc(NS(=O)(=O)c5cccnc5)c4)c3c2)cn1 [P-2144, Pyridine-3-sulfonic acid {3-[5-(1-methyl-1H-pyrazol-4-yl)-1H-pyrrolo[2,3-b]pyridine-3-carbonyl]-phenyl}-amide]
not listed: B-Raf V600E | C-Raf | A-Raf
≤ 10 µM: all other assays above

Cn1cc(-c2cnc3[nH]cc(C(=O)c4cc(NS(=O)(=O)c5cccnc5)ccc4F)c3c2)cn1 [P-2140, Pyridine-3-sulfonic acid{4-fluoro-3-[5-(1-methyl-1H-pyrazol-4-yl)-1H-pyrrolo[2,3-b]pyridine-3-carbonyl]-phenyl}-amide]
not listed: A-Raf
≤ 10 µM: all other assays above

Cc1cnc2[nH]cc(C(=O)c3c(F)ccc(NS(=O)(=O)N4CCCC4)c3F)c2c1 [P-2379, Pyrrolidine-1-sulfonic acid [2,4-difluoro-3-(5-methyl-1H-pyrrolo[2,3-b]pyridine-3-carbonyl)-phenyl]-amide]
not listed: MAP4K4 | Fms
≤ 10 µM: all other assays above

CS(=O)(=O)c1cccc(-c2cnc3[nH]cc(C(=O)c4cccc(NS(=O)(=O)C5CCCCC5)c4)c3c2)c1 [P-2461, Cyclohexanesulfonic acid {3-[5-(3-methanesulfonyl-phenyl)-1H-pyrrolo[2,3-b]pyridine-3-carbonyl]-phenyl}-amide]
≤ 10 µM: MAP4K4 | Btk | Kdr | TEC | Kit | Fms

N#Cc1ccnc2[nH]cc(C(=O)c3c(F)ccc(NS(=O)(=O)N4CCCC4)c3F)c12 [P-2394, Pyrrolidine-1-sulfonic acid [3-(4-cyano-1H-pyrrolo[2,3-b]pyridine-3-carbonyl)-2,4-difluoro-phenyl]-amide]
not listed: MAP4K4 | Kit | Fms
≤ 10 µM: all other assays above

CS(=O)(=O)Nc1cccc(-c2cnc3[nH]cc(C(=O)c4cc(NS(=O)(=O)C5CCCCC5)ccc4F)c3c2)c1 [P-2446, Cyclohexanesulfonic acid {4-fluoro-3-[5-(3-methanesulfonylamino-phenyl)-1H-pyrrolo[2,3-b]pyridine-3-carbonyl]-phenyl}-amide]
not listed: B-Raf | A-Raf
≤ 10 µM: all other assays above

CS(=O)(=O)Nc1cccc(-c2cnc3[nH]cc(C(=O)c4cc(NS(=O)(=O)C5CCCC5)ccc4F)c3c2)c1 [P-2447, Cyclopentanesulfonic acid {4-fluoro-3-[5-(3-methanesulfonylamino-phenyl)-1H-pyrrolo[2,3-b]pyridine-3-carbonyl]-phenyl}-amide]
not listed: A-Raf
≤ 10 µM: all other assays above
